From patent US12018021B2 (UCB Biopharma SRL, priority 2018, dated 2024)

Molecular target: IgE-Tb / sFcεRIα-Y131A-AF488 (Homo sapiens, UniProt P01854, N146Q/N252Q)
Assay: IgE-Tb / sFcεRIα-Y131A-AF488 FRET assay (protocol for examples 234 to 501)
Assay type: binding
Conditions: examples 234 to 501: compound with IgE-Tb 30 minutes before sFcεRIα-Y131A-AF488, incubated 18 hours at room temperature; read-out: Y131A FRET IC50 range
Method: For examples 234 to 501, the assay was conducted according to the following: Each assay reaction was conducted in a volume of 25 μl in a 384-well half-volume plate. 10 point compound serial dilutions (3-fold) were generated in DMSO at a concentration of ×50 that of the final assay concentration (FAC). Compound solutions were then prepared by diluting 10-fold in assay buffer. For the assay, 5l of diluted compound was added to 10 μl of IgE-Tb and incubated for 30 minutes before the addition of 10 μ[…]. FRET reagents FACs were 5 nM IgE-Tb, 25 nM […]. Usually the top FAC of compound in the assay was 10 μM. The final DMSO concentration was 2%. […] The maximum FRET signal (MAX) was measured in wells containing FRET reagents but no compound. The assay was incubated for 18 hours at room temperature, protected from light and evaporation, and with gentle agitation. Measurement of FRET for each well was carried out by exciting at 337 nm and measuring emission at 490/520 nm using a PHERAstar FSX plate reader (BMG Labtech). FRET ratio was calculated as follows: Emission at 520/7Emission at 490×1000. The FRET ratio was used for the data analysis. […] Z' above 0.5 was considered a good assay. Background signal (MIN) was subtracted from all wells. […] Percent inhibition was plotted against compound concentration. IC50 values for each compound were determined using four parameter logistic fit model using the XLFIT5 software package.

IgE-Tb / sFcεRIα-Y131A-AF488, sequence (P01854 whole entry N146Q/N252Q): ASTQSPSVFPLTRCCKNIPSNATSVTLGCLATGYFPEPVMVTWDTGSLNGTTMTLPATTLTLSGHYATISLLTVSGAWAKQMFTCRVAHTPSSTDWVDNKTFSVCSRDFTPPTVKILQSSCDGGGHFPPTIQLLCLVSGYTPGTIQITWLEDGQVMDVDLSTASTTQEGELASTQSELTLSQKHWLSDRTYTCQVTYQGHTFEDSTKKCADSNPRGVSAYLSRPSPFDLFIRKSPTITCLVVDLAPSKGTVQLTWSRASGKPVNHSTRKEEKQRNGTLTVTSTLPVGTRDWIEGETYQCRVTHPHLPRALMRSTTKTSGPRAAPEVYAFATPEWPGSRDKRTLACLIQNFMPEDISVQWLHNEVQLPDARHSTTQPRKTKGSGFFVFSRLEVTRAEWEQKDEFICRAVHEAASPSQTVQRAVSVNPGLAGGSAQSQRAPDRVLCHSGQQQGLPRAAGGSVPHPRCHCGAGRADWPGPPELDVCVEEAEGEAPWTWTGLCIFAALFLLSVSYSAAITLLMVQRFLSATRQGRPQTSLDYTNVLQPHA

| SMILES | IC50 |
| --- | --- |
| Cc1ccc(C2CC(Nc3nncn3[C@H]3CCc4sc(NC(=O)C5CC5)c(C(=O)NCC5CC5)c4C3)C2)cn1 (mixture of isomers) [Example 275, (5S)-2-(cyclopropanecarbonylamino)-N-(cyclopropylmethyl)-5-[3-[[3-(6-methyl-3-pyridyl)cyclobutyl]amino]-1,2,4-triazol-4-yl]-4,5,6,7-tetrahydrobenzothiophene-3-carboxamide] | < 1000 nM |
| C[C@H]1C[C@@H]1C(=O)Nc1sc2c(c1C(=O)NCC1CC1)C[C@@H](n1cnnc1Nc1cc(OC(F)F)nn1C)CC2 [Example 352, (5S)—N-(cyclopropylmethyl)-5-[3-[[5-(difluoromethoxy)-2-methylpyrazol-3-yl]amino]-1,2,4-triazol-4-yl]-2-[[(1S,2S)-2-methylcyclopropanecarbonyl]amino]-4,5,6,7-tetrahydro-1-benzothiophene-3-carboxamide] | < 1000 nM |
| Cn1nc(C(F)F)cc1Nc1nncn1[C@H]1CCc2sc(NC(=O)[C@H]3C[C@H](F)C3)c(C(=O)NC[C@H]3CC3(F)F)c2C1 (relative stereo) [Example 472, (5S)—N-[[(1R*)-2,2-difluorocyclopropyl]methyl]-5-[3-[[5-(difluoromethyl)-2-methyl-pyrazol-3-yl]amino]-1,2,4-triazol-4-yl]-2-[trans-(3-fluorocyclobutanecarbonyl)amino]-4,5,6,7-tetrahydrobenzothiophene-3-carboxamide [* or S]] | < 1000 nM |
| Cn1nc(C(F)F)cc1Nc1nncn1[C@H]1CCc2sc(NC(=O)C3CC3)c(C(=O)NC3CC34CC4)c2C1 (mixture of isomers) [Example 494, (5S)-2-cyclopropaneamido-5-(3-{[3-(difluoromethyl)-1-methyl-1H-pyrazol-5-yl]amino}-4H-1,2,4-triazol-4-yl)-N-{spiro[2.2]pentan-1-yl}-4,5,6,7-tetrahydro-1-benzothiophene-3-carboxamide] | < 1000 nM |
| Cn1nc(C(F)F)cc1Nc1nncn1[C@H]1CCc2sc(NC(=O)C3CC3)c(C(=O)NCC3CC3(F)F)c2C1 (mixture of isomers) [Example 381, (5S)-2-(cyclopropanecarbonylamino)-N-[(2,2-difluorocyclopropyl)methyl]-5-[3-[[5-(difluoromethyl)-2-methylpyrazol-3-yl]amino]-1,2,4-triazol-4-yl]-4,5,6,7-tetrahydro-1-benzothiophene-3-carboxamide] | < 1000 nM |
| Cn1nc(C(F)F)cc1Nc1nncn1[C@H]1CCc2sc(NC(=O)[C@@H]3CC3(F)F)c(C(=O)NC[C@@H]3C[C@@H]3F)c2C1 (relative stereo) [Example 284, (5S)-2-[[(1S*)-2,2-difluorocyclopropanecarbonyl]amino]-5-[3-[[5-(difluoromethyl)-2-methyl-pyrazol-3-yl]amino]-1,2,4-triazol-4-yl]-N-[[(1S,2S)-2-fluorocyclopropyl]methyl]-4,5,6,7-tetrahydrobenzothiophene-3-carboxamide [* or R]] | < 1000 nM |
| Cn1nc(C(F)(F)F)cc1Nc1nncn1[C@H]1CCc2sc(NC(=O)[C@H]3C[C@H]3F)c(C(=O)NC[C@H]3C[C@H]3F)c2C1 [Example 399, (5S)-2-[[(1R,2R)-2-fluorocyclopropanecarbonyl]amino]-N-[[(1R,2R)-2-fluorocyclopropyl]methyl]-5-[3-[[2-methyl-5-(trifluoromethyl)pyrazol-3-yl]amino]-1,2,4-triazol-4-yl]-4,5,6,7-tetrahydro-1-benzothiophene-3-carboxamide] | < 1000 nM |
| Cn1nc(C(F)(F)F)cc1Nc1nncn1[C@H]1CCc2sc(NC(=O)[C@H]3C[C@H]3F)c(C(=O)NCC3CC3(F)F)c2C1 (mixture of isomers) [Example 396, (5S)—N-[(2,2-difluorocyclopropyl)methyl]-2-[[(1R,2R)-2-fluorocyclopropanecarbonyl]amino]-5-[3-[[2-methyl-5-(trifluoromethyl)pyrazol-3-yl]amino]-1,2,4-triazol-4-yl]-4,5,6,7-tetrahydro-1-benzothiophene-3-carboxamide] | < 1000 nM |
| Cn1nc(C(F)F)cc1Nc1nncn1[C@H]1CCc2sc(NC(=O)[C@@H]3CC3(F)F)c(C(=O)NCC3CC3)c2C1 (relative stereo) [Example 365, (5S)—N-(cyclopropylmethyl)-2-[[(1R*)-2,2-difluorocyclopropanecarbonyl]amino]-5-[3-[[5-(difluoromethyl)-2-methylpyrazol-3-yl]amino]-1,2,4-triazol-4-yl]-4,5,6,7-tetrahydro-1-benzothiophene-3-carboxamide (* or S)] | < 1000 nM |
| Cn1ccc(Nc2nncn2[C@H]2CCc3sc(NC(=O)C4CC4)c(C(=O)NCC4CC4)c3C2)cc1=O [Example 301, (5S)-2-(cyclopropanecarbonylamino)-N-(cyclopropylmethyl)-5-[3-[(1-methyl-2-oxo-4-pyridyl)amino]-1,2,4-triazol-4-yl]-4,5,6,7-tetrahydrobenzothiophene-3-carboxamide] | < 1000 nM |
| C[C@H]1C[C@@H]1C(=O)Nc1sc2c(c1C(=O)NCC1CC(F)(F)C1)C[C@@H](n1cnnc1Nc1cc(C(F)F)nn1C)CC2 [Example 440, (5S)—N-[(3,3-difluorocyclobutyl)methyl]-5-[3-[[5-(difluoromethyl)-2-methylpyrazol-3-yl]amino]-1,2,4-triazol-4-yl]-2-[[(1S,2S)-2-methylcyclopropanecarbonyl]amino]-4,5,6,7-tetrahydro-1-benzothiophene-3-carboxamide] | < 1000 nM |
| Cn1nc(OC(F)F)cc1Nc1nncn1[C@H]1CCc2sc(NC(=O)[C@@H]3C[C@@H]3F)c(C(=O)NCC3CC3)c2C1 (single isomer, unassigned) [Example 350] | < 1000 nM |
| Cn1nc(C(F)F)cc1Nc1nncn1[C@H]1CCc2sc(NC(=O)C3CC3)c(C(=O)NCC3CC(F)(F)C3)c2C1 [Example 389, (5S)-2-(cyclopropanecarbonylamino)-N-[(3,3-difluorocyclobutyl)methyl]-5-[3-[[5-(difluoromethyl)-2-methylpyrazol-3-yl]amino]-1,2,4-triazol-4-yl]-4,5,6,7-tetrahydro-1-benzothiophene-3-carboxamide] | < 1000 nM |
| Cn1nc(C(F)F)cc1Nc1nncn1[C@H]1CCc2sc(NC(=O)C3CCC3)c(C(=O)NCC3CC3)c2C1 [Example 359, (5S)-2-(cyclobutanecarbonylamino)-N-(cyclopropylmethyl)-5-[3-[[5-(difluoromethyl)-2-methylpyrazol-3-yl]amino]-1,2,4-triazol-4-yl]-4,5,6,7-tetrahydro-1-benzothiophene-3-carboxamide] | < 1000 nM |
| Cn1nc(OC(F)F)cc1Nc1nncn1[C@H]1CCc2sc(NC(=O)[C@H]3C[C@H](F)C3)c(C(=O)NC[C@H]3C[C@H]3F)c2C1 [Example 482, (5S)-5-[3-[[5-(difluoromethoxy)-2-methylpyrazol-3-yl]amino]-1,2,4-triazol-4-yl]-2-[trans-(3-fluorocyclobutanecarbonyl)amino]-N-[[(1R,2R)-2-fluorocyclopropyl]methyl]-4,5,6,7-tetrahydro-1-benzothiophene-3-carboxamide] | < 1000 nM |
| Cn1nc(C(F)F)cc1Nc1nncn1[C@H]1CCc2sc(NC(=O)[C@H]3C[C@H]3F)c(C(=O)NCC3CC3)c2C1 (mixture of isomers) [Example 361, (5S)—N-(cyclopropylmethyl)-5-[3-[[5-(difluoromethyl)-2-methylpyrazol-3-yl]amino]-1,2,4-triazol-4-yl]-2-[[(1RS,2RS)-2-fluorocyclopropanecarbonyl]amino]-4,5,6,7-tetrahydro-1-benzothiophene-3-carboxamide] | < 1000 nM |
| C[C@H]1CCCN1C(=O)c1ncn([C@H]2CCc3sc(NC(=O)C4CC4)c(C(=O)NCC4CC4)c3C2)c1N [Example 261, (5S)-5-[5-amino-4-[(2S)-2-methylpyrrolidine-1-carbonyl]imidazol-1-yl]-2-(cyclopropanecarbonylamino)-N-(cyclopropylmethyl)-4,5,6,7-tetrahydrobenzothiophene-3-carboxamide] | < 1000 nM |
| Cn1nc(C(F)F)cc1Nc1nncn1[C@H]1CCc2sc(NC(=O)[C@H]3CC34CC4)c(C(=O)NC[C@H]3C[C@H](F)C3)c2C1 [Example 404, (5S)-5-[3-[[5-(Difluoromethyl)-2-methylpyrazol-3-yl]amino]-1,2,4-triazol-4-yl]-N-[trans-(3-fluorocyclobutyl)methyl]-2-[[(2S)-spiro[2.2]pentane-2-carbonyl]amino]-4,5,6,7-tetrahydro-1-benzothiophene-3-carboxamide] | < 1000 nM |
| CC1CC1CNC(=O)c1c(NC(=O)C2CC2F)sc2c1CC(n1cnnc1Nc1cc(C(F)(F)F)nn1C)CC2 [Example 390, (5S)-2-[[(1R,2R)-2-fluorocyclopropanecarbonyl]amino]-N-[[1RS,2RS)-2-methylcyclopropyl]methyl]-5-[3-[[2-methyl-5-(trifluoromethyl)pyrazol-3-yl]amino]-1,2,4-triazol-4-yl]-4,5,6,7-tetrahydro-1-benzothiophene-3-carboxamide (cis)] | < 1000 nM |
